Columns and labels:
[1] = target: T1, PR ligand-binding domain (LBD) (Homo sapiens, UniProt P06401); assay: PR LBD competitive binding assay (fluorescence polarization, PolarScreen kit); conditions: fluorescence polarization competition, 100 nM to 32 μM, Figure 5
T1 construct: purchased Invitrogen A15905
T1 sequence (P06401 679-913 limits assumed): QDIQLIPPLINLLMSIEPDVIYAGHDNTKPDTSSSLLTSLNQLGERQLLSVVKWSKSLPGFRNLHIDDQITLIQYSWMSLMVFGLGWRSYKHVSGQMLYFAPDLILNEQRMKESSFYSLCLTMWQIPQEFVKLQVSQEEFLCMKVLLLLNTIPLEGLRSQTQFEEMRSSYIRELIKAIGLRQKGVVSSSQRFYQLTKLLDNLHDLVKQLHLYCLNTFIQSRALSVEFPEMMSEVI
Method: The PR agonistic and antagonistic activities of the synthesized phosphine–borane derivatives were evaluated using an alkaline phosphatase assay with the T47D human breast cancer cell line. […] The basal alkaline phosphatase activity was also not affected by the tested compounds alone. […] The PR antagonistic activities of the compounds were assessed in the presence of 1 nM of P4 (5). We also calculated the molecular volume of each compound to investigate the structure–activity relationship (SAR). Table 2 summarizes the PR antagonistic activity and calculated volumes of the synthesized compounds. […] We investigated the binding affinity of the compounds toward the PR ligand-binding domain (LBD) using a fluorescence polarization assay system. […] We also investigated the activity of compounds 28 and 34 toward the androgen receptor (AR) by means of cell-proliferation promoting/inhibitory activity toward androgen-dependent SC-3 cells. […].
PR binding affinity was assessed using a PolarScreen Progesterone Receptor Competitor Assay Kit, Green (Invitrogen, Waltham, MA, USA, A15905) based on the manufacturer’s instruction. […] The fluorescence polarization value (mP) was measured at 485 nm/535 nm (excitation/emission) on a DTX 880 Multimode Detector (Beckman Coulter).

[2] = LogP (1-octanol/water partition coefficient) determined using HPLC; format: physicochemical; conditions: HPLC (OECD guideline), C18 column, methanol–water 75% (v/v), 40 °C, mean of triplicate
Method: Hydrophobicity is a key determinant of the activity and pharmacokinetics of biologically active compounds, and the octanol–water partition coefficient (P) and logarithm value (LogP) are widely used hydrophobicity parameters. The LogP values of the synthesized compounds were determined using HPLC [45, 46]. Table 1 summarizes the experimentally determined LogP values and calculated values. […] From the viewpoint of the phosphine structure, an increase in the number of carbon atoms increased hydrophobicity in a predictable manner.
The 1-octanol/water partition coefficient P was determined using HPLC based on the OECD Guideline for Testing Chemicals. A COSMOSIL Packed Column 5C18-MS-II (5 μm, 150 mm × 4.6 mm id, Nacalai Tesque, Inc., Kyoto, Japan) was fitted on an HPLC instrument (Multiwavelength Detector, MD-2010 Plus. JASCO, Tokyo, Japan) equipped with a pump (PU-2080, JASCO) and an oven (SSC-2120, Senshu Scientific Co., Ltd., Tokyo, Japan). The injection volume was 20 µL; the mobile phase was methanol–water 75% (v/v); and the flow rate was 1.0 mL/min in all cases. Compounds were detected by measuring the UV absorption at 240 nm. The temperature of the column was kept at 40.0 (± 0.1) °C during the measurement. The measurement was performed in triplicate, and the mean value was calculated. The dead time t0 was measured with thiourea as the unretained compound, and the capacity factor k was calculated using the equation logk = log (tr − t0/t0), where tr represents the retention time of the compound. A calibration graph was determined experimentally using reference compounds (4-methylphenol, 4-chlorophenol, 4-phenylphenol, diphenylether, fluoranthene, and dichlorodiphenyltrichloroethane) with known logP values. The LogP values of phosphine–boranes were calculated based on a calibration graph (LogP = 2.6269 logkw + 3.059, R^2 = 0.9915).

chromatographic logP [2]	melting point [°C]	SMILES	binding affinity toward PR LBD (in words) [1]
3.65	–	C[P+](C)(C)[BH2-]c1ccc(C(F)(F)F)cc1 [Compound 28, B-4-(Trifluoromethyl)phenyl Trimethylphosphine–Borane]	did not show the affinity
5.32	72.6 to 72.8	FC(F)(F)c1ccc([BH2-][P+](C2CC2)(C2CC2)C2CC2)cc1 [Compound 34, B-4-(Trifluoromethyl)phenyl Tricyclopropylphosphine–Borane]	exhibited significant affinity toward PR LBD

From paper PMC11013038, “Design, Synthesis, and Evaluation of B-(Trifluoromethyl)phenyl Phosphine–Borane Derivatives as Novel Progesterone Receptor Antagonists” (Molecules, 2024)
